Entries after “also recorded” stand apart in the source; their conditions may differ. Like-named read-outs stand apart in the source and are kept apart here.
Assays:
[1] = Acceptable daily intake (ADI) of excipients
From the text: The applicant has previously collaborated with other entities to develop an oral formulation of 17-α hydroxyprogesterone and obtained a patent for it.

[2] = WHO-JECFA database or supplier values; cited from earlier work
[3] = Solubility property of 17-HPC in different excipients; format: physicochemical
From the text: However, the stable solubility concentrations vary for each excipient, with specific values provided in the last column of Table 2.

Compound | ADI/Weight 60 kg [1] | Acceptable Daily Intake (ADI) [2] | ADI/Weight 60 kg ([1]; for 60 kg body weight) | Suggested working concentrations based on physical stability and saturated solubility results ([3]; Glycerol Monooleate (Maisine ® CC)) [mg/g] | Suggested working concentrations based on physical stability and saturated solubility results ([3]; Mono-Octanoin Glyceride (Capmul 808G)) [mg/g] | Suggested working concentrations based on physical stability and saturated solubility results ([3]; Oleic Acid) [mg/g] | Suggested working concentrations based on physical stability and saturated solubility results ([3]; Oleic Acid Glyceride (Peceol ®)) [mg/g] | Suggested working concentrations based on physical stability and saturated solubility results ([3]; Olive Oil) | Suggested working concentrations based on physical stability and saturated solubility results ([3]; PEG15 Hydroxystearate (Kolliphor ® HS15)) | Suggested working concentrations based on physical stability and saturated solubility results ([3]; PEG35 Castor Oil (Kolliphor ® ELP)) [mg/g] | Suggested working concentrations based on physical stability and saturated solubility results ([3]; PEG40 Hydrogenated Castor Oil (Kolliphor ® RH40)) | Suggested working concentrations based on physical stability and saturated solubility results ([3]; Propylene Glycol Monocaprylate (Capryol ® 90)) [mg/g] | Suggested working concentrations based on physical stability and saturated solubility results ([3]; Propylene Glycol Monolaurate (Lauroglycol ® 90)) [mg/g]
CCCCCCCC(=O)OCC(O)CO (centres unmarked) [Glycerol monocaprylate] | none | none | – | – | – | – | – | – | – | – | – | – | –
Propylene glycol monocaprylate | – | 56 mg/kg/day | 3.36 | – | – | – | – | – | – | – | – | – | –
CCCCCC(=O)O[C@]1(C(C)=O)CC[C@H]2[C@@H]3CCC4=CC(=O)CC[C@]4(C)[C@H]3CC[C@@]21C [Formulation 17-HPC, hydroxyprogesterone caproate] | – | – | – | 65 | 120 | 70 | 50 | insufficient to meet the meaningful solubility concentration required for adult formulations | cannot achieve stable solubility; also recorded: Chemically unstable | 30 | cannot achieve stable solubility; also recorded: Chemically unstable | 150 | 100

Source: patent publication US20240415778A1, “ORAL PREPARATION CONTAINING PROGESTOGEN, AND PREPARATION METHOD AND USE” (priority 2021, published 2024)
